From PubChem BioAssay AID179 (DTP/NCI, 2004)
Active and inactive are the calls of the source.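 Rule for the calls: active = compounds giving half or more protection of infected cells from virus-caused growth loss, again on retest; inactive = the rest.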

Tested on: CEM cells HIV-1 protection, formazan growth assay
Assay: NCI AIDS Antiviral Assay
Settings: for IC50: measured here: growth of uninfected CEM cells
How it was run: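 Human CEM cells, uninfected and HIV-1-infected, received five drug concentrations, and growth was read by soluble formazan assay. Compounds giving at least 50% protection were retested; reproducible 100% protection defined confirmed active.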

| Compound | EC50 | IC50 | outcome |
| --- | --- | --- | --- |
| CC1=C[C@H](C[C@]2(C)c3c(c4c(C)cccc4oc3=O)O[C@@H]2C)OC1=O | > 200 µM | 26.9 µM | – |
| CN(C)Cc1cc(C=O)cc(CN(C)C)c1O | > 200 µM | > 200 µM | – |
| CN(C)CC1C(O)C2CCN1CC2 (stereo not drawn) | – | – | inactive |
| Nc1cc2cc([N+](=O)[O-])ccc2oc1=O | > 178 µM | > 178 µM | – |
| Cc1cn(C2CC=C(CO)CC2)c(=O)[nH]c1=O (stereo not drawn) | > 1050 µM | > 1050 µM | – |
| NC(=O)NCNC(N)=O | > 676 µM | > 676 µM | – |
| CC(NC(=O)C(CC(=O)OCc1ccccc1)NC(=O)OCc1ccccc1)c1ccccc1 (stereo not drawn) | > 200 µM | > 200 µM | – |
| O=[N+]([O-])c1ccc(CSc2c3ccccc3nc3ccccc23)cc1 | > 200 µM | 3.39 µM | – |
| CC(=O)NC(CCCCN(Cc1ccccc1)C(=O)NCCCl)C(=O)NCc1ccccc1 (stereo not drawn) | > 525 µM | 355 µM | – |
| CCOc1ccc(C(C)c2cc3c(cc2OC)OCO3)cc1 (stereo not drawn) | > 33.1 µM | 0.468 µM | – |
| Brc1ccc2c(-c3csc(-c4c[nH]c5cc(Br)ccc45)n3)c[nH]c2c1 | > 200 µM | 52.5 µM | – |
| CC1COB(c2ccccc2)OCC(C)N1CNC(=O)C1=C(O)C2(O)C(O)=C3C(=O)C4C(O)=CC=CC4C(C)(O)C3CC2C(N(C)C)C1=O (stereo not drawn) | 15.1 µM | 19.5 µM | – |
| CC1=C(O)C(=O)C2C(=O)C1C1Cc3ccccc3C21 (stereo not drawn) | > 513 µM | > 513 µM | – |
| CCOC(=O)/C(=C/c1ccc(OC)c(OC)c1)P(=O)(OCC)OCC | > 676 µM | 85.1 µM | – |
| C/C(=C\Cc1ccc(F)cc1)CCCCCC/C(C)=C/Cc1ccc(F)cc1 | > 200 µM | 22.4 µM | – |
| CCOC(=O)C(=O)Nc1c(F)cc(F)cc1Br | > 813 µM | > 813 µM | – |
| CCOC(=O)C(=CCC1NCCc2c1[nH]c1ccccc21)C(=O)OCC (stereo not drawn) | > 20.4 µM | 12 µM | – |
| N#CC(C#N)=C(N)/C(C#N)=C\c1ccnc2ccccc12 | > 26.3 µM | 4.07 µM | – |
| OCC(O)COc1c(Cl)ccc(Cl)c1Cl (stereo not drawn) | 87.1 µM | 275 µM | – |
| O=C1c2cccnc2S(=O)(=O)N1c1ccc([N+](=O)[O-])cc1 | > 200 µM | 23.4 µM | – |
| Clc1nc2nc3ccccc3nc2nc1Cl | > 100 µM | 77.6 µM | – |
| O=C(O)c1cc2ccccc2[nH]c1=O | – | – | inactive |

| Compound | EC50 | IC50 | outcome |
| --- | --- | --- | --- |
| Cc1cccc(N2C(=O)C3c4[nH]c5ccc(C)cc5c4C4CCC(C(C)(C)C)CC4C3C2=O)c1 (stereo not drawn) | > 200 µM | 8.51 µM | – |
| OC1=CN=C(C2CC2)Oc2ccccc21 | > 178 µM | 117 µM | – |
| CCc1cc2c(c3[nH]ccc13)[C@@H](C)C[C@H]2C | – | – | inactive |
| CC(C)C[CH2][Ge]([CH2]CC(C)C)([CH2]CC(C)C)[CH2]CC(C)C | > 200 µM | > 200 µM | – |
| O=C(Nc1ccn(C2CC(I)C(COC(c3ccccc3)(c3ccccc3)c3ccccc3)O2)c(=O)n1)c1ccccc1 (stereo not drawn) | > 200 µM | 7.59 µM | – |
| COc1ccc(C(OCC2OC(n3ccc(NC(=O)c4ccccc4)nc3=O)CC2OP2(=S)SCCS2)(c2ccccc2)c2ccc(OC)cc2)cc1 (stereo not drawn) | > 100 µM | 44.7 µM | – |
| CN1CC(c2ccccc2)=Cc2c1ccc(N)c2N=N | > 200 µM | > 200 µM | – |
| NCCSC12CC3CC(CC(C3)C1)C2 | > 200 µM | 67.6 µM | – |
| COc1ccc(C[n+]2cccc(O)c2)cc1 | > 200 µM | 112 µM | – |
| COc1cccc2c(NCCC[N+](C)(C)[O-])c3c([N+](=O)[O-])ccc(OC)c3nc12 | > 200 µM | 1.32 µM | – |
| O=C(C=Nc1ccccc1C(=O)[O-])c1ccco1.O=C(C=Nc1ccccc1C(=O)[O-])c1ccco1.[Zn+2] | > 1.38 µM | > 1.38 µM | – |
| Cc1ncc2c(n1)NC(c1ccc([N+](=O)[O-])cc1)NC2 (stereo not drawn) | > 69.2 µM | > 69.2 µM | – |
| CC/C=C1\N=C(c2ccc(Cl)cc2)OC1=O | > 151 µM | 126 µM | – |
| C=CCOC(=O)NC1C(OC(C)[C@@H](NC(=O)OCc2ccccc2)C(=O)OC(C)(C)C)OC(COC(C)=O)C(OC(C)=O)C1OC(C)=O (stereo partly drawn) | > 200 µM | 28.8 µM | – |
| N#Cc1nc(N)c(C#N)[nH]1 | – | – | inactive |
| C/C(=N\N)C(CN(C)C)C(c1ccccc1)c1c(O)c2ccccc2oc1=O (stereo not drawn) | > 87.1 µM | > 87.1 µM | – |
| Cc1cc(=O)oc2c(C)c(OCCCOc3ccc4c(C)cc(=O)oc4c3C)ccc12 | > 32.4 µM | > 32.4 µM | – |
| CCCCCCCCCCC(c1ccc(O)c(C(=O)O)c1)c1ccc(O)c(C(=O)O)c1 | > 447 µM | 107 µM | – |
| COCN1C(=O)[C@@H]2CCCN2C(=O)c2ccc([N+](=O)[O-])cc21 | > 200 µM | > 200 µM | – |
| CC(C)OC(=O)[C@@H]1OC(C)(C)O[C@H]1C(=O)OC(C)C | > 200 µM | > 200 µM | – |
| Nc1nc2c(-c3ccc([N+](=O)[O-])cc3)nnn2c2ccccc12 | > 4.68 µM | > 4.68 µM | – |
| O=c1/c(=C/c2ccccc2[N+](=O)[O-])sc2nnc(-c3cccnc3)n12 | > 186 µM | > 186 µM | – |

| Compound | EC50 | IC50 | outcome |
| --- | --- | --- | --- |
| NCCNCc1c2ccccc2c(CNCCN)c2ccccc12 | > 95.5 µM | 7.94 µM | – |
| CN1C(=O)c2c(c3c4ccccc4n(C4OC(CO)C(O)C(O)C4O)c3c3[nH]c4ccccc4c23)C1=O (stereo not drawn) | > 200 µM | 3.89 µM | – |
| O=C1C[C@@H](c2ccccc2)O[C@@H](c2ccccc2)C1 | > 200 µM | 112 µM | – |
| O=C1c2ccccc2Sc2ccccc2N1CCCCCN1CCN(c2ccc(F)cc2)CC1 | > 200 µM | 8.91 µM | – |
| Cc1cn(CCCCCCOC(=O)NC(CCCN=C(N)N)C(=O)O)c(=O)[nH]c1=O (stereo not drawn) | > 200 µM | > 200 µM | – |
| c1cnc2c(c1)Oc1nc3ccccc3nc1S2 | > 91.2 µM | 14.5 µM | – |
| COC(=O)c1nc(NN)[nH]c(=O)c1CCCCCc1c(C(=O)OC)[nH]c(NN)cc1=O | > 6.31 µM | > 6.31 µM | – |
| CCCCCCCCCCCCCCCCOC[C@@H](COC1OC(CO)C(O)C(O)C1O)OCCCCCCCCCCCCCCCC (stereo partly drawn) | > 4.07 µM | > 4.07 µM | – |
| O=C(c1ccccc1)C1S(=O)(=O)OCCOS1(=O)=O | > 5130 µM | 3090 µM | – |
| COc1ccc(OC)c(NC(=O)C(=O)Nn2c(=S)[nH]c3ccccc3c2=O)c1 | > 631 µM | 372 µM | – |
| CCC1(O)CN(CCOC)[C@H]2C[C@@H]1C(=O)c1[nH]c3ccccc3c12 (stereo partly drawn) | > 200 µM | > 200 µM | – |
| Nc1ccc2c(c1)Oc1ccc(N)cc1O2 | > 200 µM | > 200 µM | – |
| CC(C)(C)C(=O)/C=C/c1ccc(Oc2ccccc2)cc1 | > 25.7 µM | > 25.7 µM | – |
| Cc1cccc(/C=C(\C#N)C(=O)c2ccccc2)c1 | > 363 µM | 178 µM | – |
| CSC1NC(c2ccccc2)=C(C#N)C(=O)N1C1OCC(OC(C)=O)C(OC(C)=O)C1OC(C)=O (stereo not drawn) | > 200 µM | 148 µM | – |
| COc1ccc(-c2coc3cc(O)ccc3c2=O)c(O)c1OC | > 200 µM | 14.8 µM | – |
| CC1=C(C(=O)Nc2ccccc2C)C(c2ccccc2O)C(C(=O)Nc2ccccc2C)=C(C)N1 | 9.55 µM | 15.5 µM | – |
| CN(C)c1ccc(/[N+]([O-])=C/c2cc(=O)c(OS(C)(=O)=O)co2)cc1 | > 200 µM | 3.09 µM | – |
| CC1(Cl)C2c3ccccc3C(c3ccccc32)C1(C)Cl (stereo not drawn) | > 24 µM | > 24 µM | – |
| O=C1C2=C(Nc3ccccc3N2)OC1c1ccncc1 (stereo not drawn) | > 38 µM | > 38 µM | – |
| CC(NC(=O)OC(C)(C)C)C(=O)NC1CCCC1 (stereo not drawn) | > 200 µM | > 200 µM | – |
| CCOC(OCC)c1ccccc1.[C-]#[O+].[C-]#[O+].[C-]#[O+].[Cr] | > 20 µM | 2.04 µM | – |

| Compound | EC50 | IC50 | outcome |
| --- | --- | --- | --- |
| N#CCc1nc(-c2cc3ccc(O)cc3oc2=O)cs1 | > 200 µM | 26.9 µM | – |
| COc1cc2nc(/C=C/c3nc4cc(OC)c(OC)cc4[nH]3)[nH]c2cc1OC | > 200 µM | 57.5 µM | – |
| Cc1c(C)n(-c2ccccc2)c2nc(S(C)=O)nc(S(C)=O)c12 (stereo not drawn) | > 20 µM | 1.35 µM | – |
| Oc1cc2c(cc1O)-c1[nH]ncc1CC2 | > 67.6 µM | 33.1 µM | – |
| O=C(/C=C/c1ccc(OCCCOc2ccc(/C=C/C(=O)c3ccccc3)cc2)cc1)c1ccccc1 | > 10.7 µM | > 10.7 µM | – |
| Cc1ccc(S(=O)(=O)c2c(N)c3nc4ccccc4n3c3nc4ccccc4nc23)cc1 | > 4.57 µM | > 4.57 µM | – |
| COC1OC(C(C)O)C2OC(C)(C)OC12 (stereo not drawn) | > 200 µM | > 200 µM | – |
| Cc1cc(S(=O)(=O)/N=C(/NN)NNc2cccc(C(F)(F)F)n2)c(S)cc1Cl | > 200 µM | 42.7 µM | – |
| COc1ccc(CC2C(=O)NC(C)C(=O)N(C)C3Cc4ccc(cc4)Oc4cc(ccc4O)CC(C(=O)NC(C)C(=O)NC(C)C(=O)N2C)N(C)C3=O)cc1 (stereo not drawn) | > 0.2 µM | 0.0631 µM | – |
| O=c1cc(CSc2c(-c3ccccc3)c(=O)n(-c3ccccc3)c(=S)n2-c2ccccc2)[nH]c(=O)[nH]1 | > 200 µM | > 200 µM | – |
| CC1Cc2c(N)nc(NN)nc2NC1=O (stereo not drawn) | – | – | inactive |
| COC(=O)C1=C(C)NC2(C)SC1C(C)C2C(=O)OC (stereo not drawn) | > 871 µM | 490 µM | – |
| O=C(CC(O)(C(F)(F)F)C(F)(F)F)C(c1ccccc1)C(O)(C(F)(F)F)C(F)(F)F (stereo not drawn) | – | – | inactive |
| Cc1ccc(/C=C/C(=N/NC(=O)N/N=C(/C=C/c2ccc(C)cc2)C(C)(C)CN2CCCCC2)C(C)(C)CN2CCCCC2)cc1 | > 200 µM | 3.02 µM | – |
| Cc1cc(S(=O)(=O)NC(=NCCc2ccccc2)NN)c(S)cc1Cl | > 200 µM | 25.7 µM | – |
| CC1(C)C2CC(O)C1(C)CC2=O (stereo not drawn) | > 200 µM | 170 µM | – |
| O=C(O)C(SC1=NNC2(C(=O)N1)c1ccccc1-c1ccccc12)SC1=NNC2(C(=O)N1)c1ccccc1-c1ccccc12 | – | – | inactive |
| CCc1c(O)sc2c(c1=O)C(=NCC(C)C)CC(C)(C)N2 | > 32.4 µM | > 32.4 µM | – |
| Cn1c2c(cc(-c3ccccc3)c1=O)COc1ccccc1-2 | > 89.1 µM | 46.8 µM | – |
| CCC(C)(C)NS(=O)(=O)c1ccccc1 | – | – | inactive |
| Cc1ccc(-n2nncc2[Si](C)(C)C)s1 | > 200 µM | 148 µM | – |
| COC(=O)/C([O-])=C(\C(=O)OC)[n+]1cc(Br)cc2ccccc21 | > 200 µM | 77.6 µM | – |
